Test results as given in patent publication US12503432B2, “Ionizable lipids for nucleic acid delivery” (Global Life Sciences Solutions Canada ULC, priority 2019, dated 2025).

What was measured:
[1] = LNP characterization: size and PDI by dynamic light scattering, mRNA encapsulation efficiency by RiboGreen assay; assay type: physicochemical
Method: Particle sizes and “polydispersity index” (PDI) of the lipid particle were measured by dynamic light scattering (DLS). PDI indicates the width of the particle distribution. This is a parameter calculated from a cumulative analysis of the (DLS)-measured intensity autocorrelation function assuming a single particle size mode and a single exponential fit to the autocorrelation function. […] The particles produced by mechanical micromixers such as the NanoAssemblr® Spark™ and NanoAssemblr® Benchtop (Precision NanoSystems Inc.) are substantially homogeneous in size assuming all other variables are neutral. A lower PDI indicates a more homogenous population of lipid particles. The Spark™ instrument is used in a screening setting to identify the lead compositions. Once the composition is selected, the lipid particle can be fine-tuned using the NanoAssemblr® Benchtop. Once the process parameters Flow Rate Ratio and Total Flow Rate is identified for the specific nanoparticle composition, the nanoparticle technology can be scaled up using the same process parameter values.
Lipid particles were also manufactured by a larger microfluidic mixer instrument, the NanoAssemblr® Ignite™ for testing. Briefly, 350 μL of mRNA was diluted using 100 mM sodium acetate buffer to the required concentration of 0.2 to 0.3 mg/mL. Lipid particle samples were then prepared by running both fluids, namely, nucleic acids in aqueous solvent and Lipid Mix in ethanol at a flow ratio of 3:1 and at a total flow rate of 12 ml/min in the microfluidic mixer. Following mixing in the microfluidic device, the post cartridge lipid nucleic acid particle sample was diluted into RNAse free tubes containing three to 40 volumes of phosphate buffered saline (PBS), pH 7.4. Ethanol was finally removed through dialysis in PBS, pH 7, or using Amicon™ centrifugal filters (Millipore, USA) at 3000 RPM, or using TFF systems. Once the required concentration was achieved, the lipid nucleic acid particles were filter sterilized using 0.2 μm filters in aseptic conditions. Final encapsulation efficiency was measured by the Ribogreen™ assay. Quant-iT™ RiboGreen® RNA Reagent and Kit (Invitrogen) following manufacturer directions.
Messenger RNA or plasmid nucleic acid therapeutic (NAT) as described below, was diluted using sodium acetate buffer to the required concentration. Lipid nucleic acid particle (LNAP) samples were then prepared by running both fluids using the NanoAssemblr® Spark instrument. Briefly, […] of nucleic acids in 100 mM sodium acetate buffer in a total volume of 32 μL was mixed with 16 μL of 37.5 mM lipid mix solution as required by the N/P ratios (4, 6, or 10 in illustrated examples). The microfluidically mixed lipid nucleic acid particles (LNAP) made in the instrument were immediately diluted down with 48 μL Ca++ and Mg++ free 1× PBS at pH 7.4 in the aqueous output well. These LNAP were immediately collected into microcentrifuge tubes containing 96 μL of the same buffer at pH 7.4. Encapsulation efficiency was measured by a modified Ribogreen™ assay (Quanti-iT RiboGreen™ RNA assay kit, Fisher). This information was used to establish the desired dosage.
After the lipid particles were made as described in Example 17, particle size (hydrodynamic diameter of the particles) was determined by Dynamic Light Scattering (DLS) using a ZetaSizer™ Nano ZS™ (Malvern Instruments, UK). He/Ne laser of 633 nm wavelength was used as the light source. Data were measured from the scattered intensity data conducted in backscattering detection mode (measurement angle=173). Measurements were an average of 10 runs of two cycles each per sample. Z-Average size was reported as the particle size, and is defined as the harmonic intensity averaged particle diameter. These LNP characteristics, as well as the results of the mRNA encapsulation efficiency for various Lipid Mixes are also described in the application are shown in Tables 4, 5 and 6. […]

primary human T cells = test: EPO mRNA LNP delivery to primary human T cells, Quantikine IVD Human Epo ELISA; assay type: cell-based
Method: Reagents were acquired from Quantikine, Minneapolis, MN. The assay was performed as directed on the Quantikine® IVD® ELISA Human Erythropoietin Immunoassay protocol in the package insert. Briefly; primary human T cells were isolated from fresh whole blood using a negative selection protocol and activated using a triple activator. Seven days post-activation, T cells were dosed with mRNA LNPs encoding EPO at […] mRNA per 500,000 cells and N/P 10. After 48 h of exposure, the T cells were harvested and lysed for cytosolic EPO and media supernatant was sampled for secreted EPO. Quantikine® Human Serum Controls were used.

[2] = 5-moU EPO encoded LNPs, IL:DSPC:cholesterol:DMG-PEG (50:10:38.5:1.5), N/P 6
[3] = OVA encoded LNPs, payload 5-moU OVA, LM02, N/P 8
[4] = OVA encoded LNPs, payload WT OVA, LM02, N/P 8
[5] = Table 4 LNPs, payload and lipid mix not stated

Which results are given for `CCCCC/C=C\C/C=C\CCCCCCCCC(CCCCCCCC/C=C\C/C=C\CCCCC)OC(=O)CCCN(C)C` [MC3, DLin-MC3-DMA, reference compound]?
Diameter (Z. ave, nm) [1, 2]: 65.1 nm; Encapsulation Efficiency (%) [1, 2]: 98.8%; Polydispersity Index (PDI) [1, 2]: 0.04; Diameter (Z. ave, nm) [1, 3]: 65.8 nm; Encapsulation Efficiency (%) [1, 3]: 95.2%; Polydispersity Index (PDI) [1, 3]: 0.07; Diameter (Z. ave, nm) [1, 4]: 67.5 nm; Encapsulation Efficiency (%) [1, 4]: 95.4%; Polydispersity Index (PDI) [1, 4]: 0.03; Diameter (Z. ave, nm) [1, 5]: 77.2 nm; Encapsulation Efficiency (%) [1, 5]: 88.6%; Polydispersity Index (PDI) [1, 5]: 0.07; cytosolic EPO (primary human T cells; T cell lysate, 48 h exposure, N/P 10, FIG. 5): no cytosolic EPO; secreted EPO (primary human T cells; media supernatant, 48 h exposure, N/P 10, FIG. 5): about 545 mlU/mL; Fold increase in EPO concentration relative to MC3 (primary human T cells; primary human T cells, 48 hours): 1.0; EPO concentration (mIU/mL), 48 hours (primary human T cells; primary human T cells, 48 hours, EPO mRNA LNP, N/P 10): 545.2 mIU/mL
